In one data set the test system is solid Sarcoma 180. Put plainly: Activity against solid Sarcoma 180. The conditions noted are these: for T/C / Tumor Weight: day 9; for Tumor Weight: mean ± SD.
Another data set concerns ascitic Sarcoma 180. In words: Activity against ascitic Sarcoma 180. The format is in vivo, female NMRI mice. The conditions noted are these: for Survivors/Animals Treated: day 80; for MST (mean survival time): mean (range). From the text: Each animal obtained about 10^7 tumor cells.
Every day occuring deaths were noted.

The subject of the next data set is Ehrlich ascites tumor. In words: Activity against Ehrlich Ascites Tumor. The note with it: single i.p. dose, 24 h after tumor inoculation. The format is in vivo, Female CF1 mice. The method, then: Female CF1 mice are each given about 6×10^6 Ehrlich ascites tumor cells by means of intraperitoneal injection and, 24 hours later, a single intraperitoneal dose of substance dose range of 20 to 500 mg/kg) in physiological saline solution (0.4 ml). In each case 5 to 10 animals are tested per dose. If appropriate, the preparation can be buffered to a pH of 4 to 7, for example with sodium bicarbonate or tris-(hydroxymethyl)-aminomethane, in order to avoid local irritation at the injection site. A group of untreated control animals which were injected intraperitoneally with 0.4 ml of physiological saline solution without administration of the substance is also run for each test series.
The tumor development in the individual dose ranges is evaluated by means of the weight course and survival time. The dose-dependent number of tumor deaths, toxicity deaths and surviving, and the associated percentage increase in the average survival time are determined for each substance.

The subject of a further data set is B16 Melanoma. Put plainly: Activity against B16 Melanoma. The conditions noted are these: day 10. The format is in vivo, female B6 D2 F1 mice. The method, then:
(§1) The B16 melanoma and colon 38 carcinoma used were obtained from the NCI Liasion Office, Institut Jules Bordet, Brussels, Belgium and, for propagation, were kept as solid, subcutaneously growing tumor lines on male C57BL/6J mice. For testing, the tumors were transplanted to female B6 D2 F1 mice. All animals were kept under standard conditions (22°-23° C., tap water and altromin food ad libitum, 12-h light-dark rhythm).
(§2) For tumor transplantation on day 0 of the testing experiments, solid tumors were removed from donor mice, minced with scissors and reduced to small particles. After suspension in twofold volumes of Hank's balanced salt solution, volumes of 0.3 ml were inoculated subcutaneously into the axillary region, resulting in the growth of solitary solid tumors.
(§3) The test compounds were administered either as a single injection on day 1 or as three injections on days 1, 3 and 5, or as five injections on days 1, 3, 5, 7 and 9. The different doses applied and the animal distribution are recorded in table 4. The substances, dissolved or suspended in a DMSO-saline mixture (1/9=v/v), were always injected intraperitoneally. The concentrations were selected in such a manner that each mouse received a total volume of 0.4 to 0.5 ml. Control animals only obtained one, three or five injections of the DMSO-saline mixture (0.5 ml/animal) without drug addition.
(§4) The number of deaths was recorded daily. Deaths occuring within 7 days (single injection), 11 days (three injections) or 15 days (five injections) after tumor transplantation were defined as deaths due to substance toxicity.
(§5) In the case of B16 melonoma, the tumors were removed and weighed on day 10 for the single and three injections or on day 15 for the five injections. Colon 38 carcinomas were always evaluated on day 15 of the experiment.

The next data set concerns Colon 38 Carcinoma. In words: Activity against Colon 38 Carcinoma. The format is in vivo, female B6 D2 F1 mice. The note with it: day 15. The method, then:
as §1, §2, §3, §4, §5

In a further data set the test system is Mammary Carcinoma. In words: Activity against heterotransplanted human mammary carcinoma. The format is in vivo, human tumor xenograft tumor xenograft tumor xenograft. The note with it: day 23. The method, then: (§6) The same testing procedure as in the tests with B16 melanoma and colon 38 carcinoma was employed. The test compounds were applied in equivalent and equitoxic doses, subdivided into five injections. The first injection was administered on day 8 (mammary carcinoma), day 10 (adenocarcinoma of rectum and lung) and day 26 (small cell lung carcinoma) of the tumor transplantation. The T/C values were determined 3 days after the last substance injection, i.e., on day 23 (mammary carcinoma), day 25 (adenocarcinoma of rectum and lung) and day 41 (small cell lung carcinoma).

The test system of data set [1] is Lung Small Cell Carcinoma. Put plainly: Activity against heterotransplanted human small cell lung carcinoma. The format is in vivo. The conditions noted are these: day 41. The method, then:
as §6

Another data set has as its system Lung Adenocarcinoma. In words: Activity against heterotransplanted human lung adenocarcinoma. The format is in vivo. The conditions noted are these: day 25. The method, then: as §6
The next data set relates to Rectum Adenocarcinoma. Put plainly: Activity against heterotransplanted human rectum adenocarcinoma. The format is in vivo. The conditions noted are these: day 25. The method, then:
as §6

Usually T/C stands for the result in the treated group divided by that in the control group, in per cent.

Protocol for solid Sarcoma 180: The sarcoma 180 used in the present study was obtained from the Deutsche Krebsforschungszentrum (Heidelberg, Germany). It was propagated as an intraperitoneally growing tumor line on female NMRI mice which were kept under standard conditions (altromin food and tap water ad libitum, 12-h dark-light rhythm).
Antitumor testing was performed against sarcoma 180 in fluid ascitic as well as in solid, subcutaneously growing form. For testing against ascitic or solid sarcoma 180, the ascitic tumor of donor mice was harvested, diluted 1:3 (v:v) with saline and injected either into the peritoneal cavity or, subcutaneously, into the axillary region of female NMRI mice. Each animal obtained about 10^7 tumor cells. The day of tumor transplantation was defined as day 0 of the experiment.
Before administration of the test compounds, samples corresponding to the applied doses were dissolved in DMSO, filled up with ninefold volumes of saline and applied to mice in volumes of 0.02 ml per g of body weight. The different doses were either given as a single injection on day 1 or as triple injections on days 1, 3 and 5. […] The untreated, tumor-bearing control animals only received injections of the DMSO/saline mixture (0.02 ml/g). Every day occuring deaths were noted. Deaths within 8 days after tumor transplantation were defined as toxic deaths due to substance toxicity. In the case of ascitic sarcoma 180, the parameters evaluated were the values of mean survival time (MST) and of increase in life span (ILS); the latter was calculated by relating the mean survival time of a treated group to that of the corresponding control group expressed as a percentage and by subtracting 100%. The key date for the evaluation of the experiment and for determining the number of surviving (cured) animals was day 80. In the case of solid sarcoma 180, the tumors were removed on day 9 after transplantation and weighted to an accuracy of ±1 mg. From tumor weights of treated and control animals, the T/C ratios were calculated as follows: [formula]

With `Cl.Cl.Nc1ccc([S][Ti]([S]c2ccc(N)cc2)([CH]2C=CC=C2)[CH]2C=CC=C2)cc1` [Compound 1, Bis(p-aminothiophenolato)bis(.eta.^5 -cyclopentadienyl)titanium(IV)-dihydrochloride], the T/C with solid Sarcoma 180 (1 × 60 mg/kg) was found to be 109%; in the data set on solid Sarcoma 180 (1 × 100 mg/kg) it was 86%; in the data set on solid Sarcoma 180 (3 × 60 mg/kg), 39%; in the data set on B16 Melanoma (1 × 100 mg/kg i.p.), 80%; with B16 Melanoma (3 × 60 mg/kg i.p.) it was 36%; in the data set on Colon 38 Carcinoma (1 × 100 mg/kg i.p.), 61%. Besides, in the data set on Colon 38 Carcinoma (3 × 60 mg/kg i.p.), the T/C came to 38%. The entries for the “Tumor Weight” value in the data set on solid Sarcoma 180 (1 × 60 mg/kg), with solid Sarcoma 180 (1 × 100 mg/kg) and with solid Sarcoma 180 (3 × 60 mg/kg) were 1,30 ± 0,30 g, 1,03 ± 0,26 g and 0,47 ± 0,12 g, respectively. Besides, the “ILS (increase in life span)” value in the data set on ascitic Sarcoma 180 (1 × 60 mg/kg) came out at 15%; with ascitic Sarcoma 180 (1 × 100 mg/kg), 139%. In the data set on ascitic Sarcoma 180 (1 × 100 mg/kg), the “Survivors/Animals Treated” value is 1/5. Moreover, the “MST (mean survival time)” value with ascitic Sarcoma 180 (1 × 100 mg/kg) is 39,4 (19-80) d. Moreover, the “Optimal Treating Rate” value in the data set on Ehrlich ascites tumor is reported as 100%. Also, the “Therapeutic Index (LD50/ED90)” value in the data set with Ehrlich ascites tumor is recorded as 4,3.
Turning to `Cl.Nc1ccc([S][Ti]([Cl])([CH]2C=CC=C2)[CH]2C=CC=C2)cc1` [Compound 2, p-aminothiophenolato-chloro-bis(.eta.^5 -cyclopentadienyl)titanium(IV)-hydrochloride], in the data set on Ehrlich ascites tumor, the “Optimal Treating Rate” value was determined as 100% and the “Therapeutic Index (LD50/ED90)” value is on record as 4,4.
In the case of `O=C(O)C=CC(=O)[O][Ti+2][O]C(=O)C=CC(=O)O.c1cc[cH-]c1.c1cc[cH-]c1` [Compound 3, Bis(hydrogenmaleinato)bis(.eta.^5 -cyclopentadienyl)titanium(IV)], the T/C with solid Sarcoma 180 (1 × 80 mg/kg) is reported as 95%; in the data set on solid Sarcoma 180 (1 × 120 mg/kg) it was 73%; in the data set on solid Sarcoma 180 (3 × 60 mg/kg), 76%; in the data set with solid Sarcoma 180 (3 × 100 mg/kg), 53%; in the data set with B16 Melanoma (1 × 120 mg/kg i.p.) it was 89%; with B16 Melanoma (3 × 100 mg/kg i.p.), 50%. In addition, the T/C with Colon 38 Carcinoma (1 × 120 mg/kg i.p.) is on record as 72%; in the data set on Colon 38 Carcinoma (3 × 100 mg/kg i.p.) it was 50%. The “Tumor Weight” value in the data set with solid Sarcoma 180 (1 × 80 mg/kg) was 1,13 ± 0,18 g; with solid Sarcoma 180 (1 × 120 mg/kg), 0,87 ± 0,41 g; in the data set with solid Sarcoma 180 (3 × 60 mg/kg) it was 0,91 ± 0,25 g; in the data set with solid Sarcoma 180 (3 × 100 mg/kg) it was 0,63 ± 0,14 g. Also, the “ILS (increase in life span)” value in the data set with ascitic Sarcoma 180 (1 × 80 mg/kg) is listed as 95%; with ascitic Sarcoma 180 (1 × 120 mg/kg), 125%. Besides, the “Survivors/Animals Treated” value in the data set on ascitic Sarcoma 180 (1 × 80 mg/kg) and with ascitic Sarcoma 180 (1 × 120 mg/kg) was 1/5 in each case. The “MST (mean survival time)” value in the data set on ascitic Sarcoma 180 (1 × 80 mg/kg) is listed as 32,2 (15-80) d; in the data set with ascitic Sarcoma 180 (1 × 120 mg/kg), 37,2 (21-80) d. Further, in the data set on Ehrlich ascites tumor, the “Optimal Treating Rate” value came to 100%. Also, the “Therapeutic Index (LD50/ED90)” value in the data set with Ehrlich ascites tumor is 3,8. The “T/C (based on mean relative volume of tumor)” value is listed as 40% in the data set with Mammary Carcinoma (5 × 30 mg/kg), 65% in data set [1] (5 × 30 mg/kg), 35% in the data set on Lung Adenocarcinoma (5 × 30 mg/kg) and 89% in the data set on Rectum Adenocarcinoma (5 × 30 mg/kg).
On to `O=C([O][Ti+2][O]C(=O)C(Cl)(Cl)Cl)C(Cl)(Cl)Cl.c1cc[cH-]c1.c1cc[cH-]c1` [Compound 4, Bis(trichloroacetato)bis(.eta.^5 -cyclopentadienyl)titanium(IV)], for which the T/C worked out at 96% in the data set on solid Sarcoma 180 (1 × 220 mg/kg); 67% in the data set on solid Sarcoma 180 (1 × 320 mg/kg); 106% in the data set with solid Sarcoma 180 (3 × 200 mg/kg); 37% in the data set with solid Sarcoma 180 (3 × 300 mg/kg); 85% in the data set with B16 Melanoma (1 × 320 mg/kg i.p.); 41% in the data set with B16 Melanoma (3 × 300 mg/kg i.p.). This compound registered a T/C in the data set on Colon 38 Carcinoma (1 × 320 mg/kg i.p.) of 48%. Besides, the “Tumor Weight” value in the data set on solid Sarcoma 180 (1 × 220 mg/kg) is reported as 1,14 ± 0,26 g; in the data set on solid Sarcoma 180 (1 × 320 mg/kg), 0,79 ± 0,28 g; in the data set on solid Sarcoma 180 (3 × 200 mg/kg), 1,26 ± 0,30 g; in the data set on solid Sarcoma 180 (3 × 300 mg/kg) it was 0,44 ± 0,14 g. The “Toxicity Deaths/Animals Treated” value in the data set on solid Sarcoma 180 (3 × 300 mg/kg) is listed as 1/5. Moreover, the figures for the “ILS (increase in life span)” value with ascitic Sarcoma 180 (1 × 220 mg/kg) and in the data set with ascitic Sarcoma 180 (1 × 320 mg/kg) were 4% and 96%, respectively. Also, the entries for the “MST (mean survival time)” value in the data set with ascitic Sarcoma 180 (1 × 220 mg/kg) and in the data set with ascitic Sarcoma 180 (1 × 320 mg/kg) were 17,2 (15-20) d and 32,4 (18-80) d, respectively. In addition, the “Survivors/Animals Treated” value with ascitic Sarcoma 180 (1 × 320 mg/kg) is reported as 1/5. Also, in the data set with Ehrlich ascites tumor, the “Optimal Treating Rate” value turned out to be 100%. The “Therapeutic Index (LD50/ED90)” value with Ehrlich ascites tumor is reported as 5,5.
As to “Titanocene dibromide [reference compound]”, the T/C was 108% with solid Sarcoma 180 (1 × 50 mg/kg); 94% in the data set with solid Sarcoma 180 (1 × 60 mg/kg); 53% in the data set on solid Sarcoma 180 (3 × 50 mg/kg); 37% in the data set on solid Sarcoma 180 (3 × 60 mg/kg); 42% in the data set with B16 Melanoma (1 × 60 mg/kg i.p.); 48% in the data set with B16 Melanoma (3 × 50 mg/kg i.p.). Also, the T/C in the data set with B16 Melanoma (3 × 60 mg/kg i.p.) was 44%; in the data set on Colon 38 Carcinoma (1 × 60 mg/kg i.p.) it was 36%; in the data set on Colon 38 Carcinoma (3 × 50 mg/kg i.p.), 51%. The “Tumor Weight” value with solid Sarcoma 180 (1 × 50 mg/kg) was 1,27 ± 0,37 g; in the data set on solid Sarcoma 180 (1 × 60 mg/kg), 1,21 ± 0,37 g; in the data set with solid Sarcoma 180 (3 × 50 mg/kg) it was 0,69 ± 0,17 g; with solid Sarcoma 180 (3 × 60 mg/kg) it was 0,48 ± 0,10 g. The “Toxicity Deaths/Animals Treated” value in the data set on solid Sarcoma 180 (3 × 60 mg/kg) is recorded as 1/5. Also, the “ILS (increase in life span)” value stood at 61% with ascitic Sarcoma 180 (1 × 50 mg/kg, group of 5) and 128% in the data set with ascitic Sarcoma 180 (1 × 60 mg/kg). Moreover, the “MST (mean survival time)” value is 28,4 (22-34) d in the data set with ascitic Sarcoma 180 (1 × 50 mg/kg, group of 5) and 40,2 (20-80) d in the data set with ascitic Sarcoma 180 (1 × 60 mg/kg). For the same compound, in the data set with ascitic Sarcoma 180 (1 × 60 mg/kg), the “Survivors/Animals Treated” value is 1/5. Also, the “T/C (based on mean relative volume of tumor)” value with Mammary Carcinoma (5 × 20 mg/kg) is given as 44%; in data set [1] (5 × 20 mg/kg) it was 96%; with Lung Adenocarcinoma (5 × 20 mg/kg) it was 53%; in the data set on Rectum Adenocarcinoma (5 × 20 mg/kg), 48%.

For the origin of these results see patent US5002969A, “Pharmaceutical compositions containing titanocene complexes and use of these complexes as cytostatic agents” (priority 1985, dated 1991).
